# Patent US6846489B1, “Vaccines containing a saponin and a sterol” (priority 1995, dated 2005)
# What was measured:
# erythrocytes = assay: Lytic activity of QS21 on erythrocytes (hemolysis); type: cell-based; conditions: for lytic activity: expressed as μg QS21 equivalent for the same hemolysis, 5 μg QS21 (or digitonin)
# Method: When QS21 is added to erythrocytes, they lyse them releasing hemoglobin. This lytic activity can also be measured using liposomes which contain cholesterol in their membrane and an entrapped fluorescent dye, carboxyfluorescein—as the liposomes are lysed the dye is released which can be monitored by fluorescence spectroscopy.
# If the QS21 first associates with cholesterol in liposomes it is no longer lyric towards cells or other liposomes.
# In the presence of phospholipids the cholesterol resides within the phospholipid bilayer which can form a stable suspension of vesicles called liposomes. To avoid the requirement to add phospholipids a soluble derivative was tried.
# [1] = Lytic activity of QS21 on fluorescent liposomes (carboxyfluorescein release); conditions: fluorescent liposomes without cholesterol in their membrane
# Method: When QS21 is added to erythrocytes, they lyse them releasing hemoglobin. […]
# The same holds true using fluorescent liposomes to measure the lytic activity.
# [2] = Base-mediated hydrolysis of QS21 monitored by reverse-phase HPLC; type: physicochemical; conditions: pH 9, 37° C.
# Excerpt: This hydrolysis can be monitored by measuring the decrease in the peak corresponding to QS21 on reverse-phase HPLC.
# HSV gD = conditions: antigen gD (5 μg)
# [3] = type: in vivo, rabbits
# Excerpt: 1.6 Reactogenicity intra-muscularly in rabbits
# Since the CPK increase is a measure of muscle damage this indicates decreased muscle damage and is confirmed by the histopathology.
# [4] = Binding of the liposome-QS21 complex to alum; type: physicochemical; conditions: incubated with alum (Al(OH)3) in PBS
# Method: QS21 was incubated with neutral liposomes containing excess cholesterol as well as radioactive cholesterol and then incubated with alum (Al(OH)3) in PBS.
compound,measurement,setting,value
C[C@@H]1CC[C@@]2(OC1)O[C@H]1[C@@H](O)[C@H]3[C@@H]4CC[C@H]5C[C@@H](O[C@@H]6O[C@H](CO)[C@H](O[C@@H]7O[C@H](CO)[C@@H](O)[C@H](O[C@@H]8OC[C@@H](O)[C@H](O)[C@H]8O)[C@H]7O[C@@H]7O[C@H](CO)[C@H](O)[C@H](O[C@@H]8O[C@H](CO)[C@@H](O)[C@H](O)[C@H]8O)[C@H]7O)[C@H](O)[C@H]6O)[C@H](O)C[C@]5(C)[C@H]4CC[C@]3(C)[C@H]1[C@@H]2C [digitonin],lytic activity,erythrocytes,5 µg
Polyoxyethanyl-cholesterol sebacate,reduction in the lytic activity of QS21,erythrocytes; 2000 fold excess (w/w) over QS21,no reduction
QS21,lytic activity on erythrocytes,"erythrocytes; QS21 incubated with liposomes containing cholesterol before adding to erythrocytes, 1:1 ratio cholesterol to QS21",no lytic activity is detected
same,lytic activity,erythrocytes,5 µg
same,lysis of fluorescent liposomes,[1],no lysis
same,hydrolysis of the QS21,"[2]; 16 hours, liposomes containing cholesterol added 2:1 (chol:QS21 w/w)",no hydrolysis
same,QS21 degraded,"[2]; 16 hours, liposomes containing cholesterol, ratio 1:1",10%
same,QS21 hydrolysed,"[2]; within 16 hours, QS21 alone",90%
same,"IgG1 %, isotypes 7 days post II",HSV gD,66%
same,"IgG1, isotypes 7 days post II",HSV gD,156 µg/mL
same,"IgG2a %, isotypes 7 days post II",HSV gD,28%
same,"IgG2a, isotypes 7 days post II",HSV gD,67 µg/mL
same,"IgG2b %, isotypes 7 days post II",HSV gD,6%
same,"IgG2b, isotypes 7 days post II",HSV gD,14 µg/mL
same,IgG 7 post II (GMT),HSV gD,3468
same,IgG 14 post II (GMT),HSV gD,4132
same,toxicity in rabbits (by CPK),"[3]; QS21 associated with cholesterol-containing liposomes, Chol:QS21=6:1",non-toxic
same,CPK Day0 Mean,[3]; mean of 5 rabbits,1369 U.I./L
same,CPK Day1 Mean,[3]; mean of 5 rabbits,6261 U.I./L
same,CPK Day3 Mean,"[3]; mean, value in parentheses left out",1212 U.I./L
same,binding to alum in PBS,[4],neither neutral liposomes nor QS21 bind to alum
